Assay results: patent US20090208960A1, “METHODS FOR IDENTIFYNG CELLULAR MODULATORS OF DISAGGREGATION ACTIVITY OR AGGREGATION ACTIVITY IN AN ANIMAL” (priority 2006, published 2009)

What was measured:
[1] = test system: proteasome activity of worm PDS; test: Proteasome activity of worm PDS with substrate Z-GGL-AMC; format: biochemical, Caenorhabditis elegans; conditions: 10 μM; wild-type worm (N2) PDS 0.5 μg/μl
Experimental: The synthetic proteasome substrate Z-GGL-AMC was used according to the manufacturer's (Calbiochem) instructions to follow proteasome activity of wild-type worms (strain N2) PDS (0.5 μg/μl).

Experimental for PC12 cells: Viability of rat adrenal pheochromocytoma (PC12) cells were discerned by the MTT assay (Bucciantini et al., Nature 416: 507, 2002), and normalized to cell survival when incubated in the absence of Aβ1-40.
Using the disaggregation assay and conditions as in B, and 72 h incubation, Aβ1-40 disaggregation samples (500 nM) were added to PC12 cell culture medium for 3 days. Cell viability was assayed by MTT metabolic activity.

| Compound | proteasome activity of worm PDS [1] | toxicity on PC12 cells (PC12 cells) |
| --- | --- | --- |
| CC[C@H](C)[C@H](NC(=O)[C@H]([C@@H](C)CC)N(C)C(C)=O)C(=O)N[C@H](C(=O)N[C@@H](CC(C)C)C(=O)[C@@]1(C)CO1)[C@@H](C)O [Epoxomicin] | effectively inhibits proteasome activity |  |
| Monomeric Aβ1-40 peptide: Aβ1-40 peptide purchased from Synpep |  | did not exhibit toxicity |
